This is an account of results in a melting point compilation (Tetko et al.).

Structures are written as SMILES.

For the data set the following is noted: a range is the spread between reports.

A word on the melting point: it is the temperature of the solid-liquid transition. Molecule `CCOC(=O)c1csc(C)n1` came in with a melting point of 55 to 57 °C.

`CC(=O)c1ccc(I)cc1`: the melting point was in the range of 83 to 86 °C.

On to `CCC1CCCC1C` (stereo unspecified), for which the melting point is -106 °C.

Regarding `CCCCC(=O)c1ccccc1`, the melting point is -9.4 to -9 °C.

Take `COc1ccc(C=O)cc1`: the melting point is -1 to 1 °C.

The molecule `ClCCOc1ccccc1` gave a melting point of 24 to 28 °C.

Molecule `O=S(=O)(Cl)c1ccc2ccccc2c1` had a melting point of 76 to 81 °C.

Consider `O=C(c1ccco1)C(O)c1ccco1` (stereo unspecified), for which the melting point lay in the range of 136 to 138 °C.

As for `CCCCCC(=O)OC(=O)CCCCC`, the melting point is -41 to -40 °C.

The molecule `C=Cc1ccc(N)cc1` yielded a melting point of 23.5 to 26 °C.

`NC(=O)c1ccc(N)nc1` had a melting point of 246 to 247 °C.

Consider `CCCCCCCCCCCCCCC(=O)O`, for which the melting point fell in the range of 52 to 53 °C.

For the molecule `CCOC(=O)C(C)C`, the melting point was -88.2 to -88 °C.

As for `OCCc1ccc(O)cc1`, the melting point is 90 to 91 °C.

For `ClC1=C(Cl)C2(Cl)C3C(Cl)C(Cl)CC3C1(Cl)C2(Cl)Cl` (stereo unspecified), the melting point was 104 to 106 °C.

`O=C(Cl)c1cccc([N+](=O)[O-])c1`: the melting point fell in the range of 33 to 36 °C.

Regarding `CC(N)(CO)CO`, the melting point fell in the range of 110 to 111 °C.

Consider `CCCCCCCCCCl`, for which the melting point is -39.4 to -39 °C.

`c1ccc(C(c2ccccc2)(c2ccccc2)c2ccccc2)cc1` yielded a melting point of 282 to 283 °C.

Turning to `CCCOC(C)=O`, the melting point is -95 to -92 °C.

The molecule `OC[C@@H](O)[C@@H](O)[C@@H](O)CO` gave a melting point of 102 to 103 °C.

`O=Cc1ccc(-c2ccccc2)cc1` yielded a melting point of 59 to 60 °C.

`CC(C)C=O`: the melting point was -65.9 to -65 °C.

`Nc1ccc(-c2ccccc2)cc1` displayed a melting point of 53 to 54 °C.

`Cc1ccccc1C(=O)O`: the melting point fell in the range of 104 to 108 °C.

`O=[N+]([O-])c1ccc(Cl)cc1Cl` yielded a melting point of 30.5 to 34 °C.

Regarding `Fc1ccc(Cl)cc1`, the melting point was -26.8 to -22 °C.

As for `CC(=O)c1ccc2ccccc2c1`, the melting point was 53 to 56 °C.

Regarding `O=C(O)CCCCCCC(=O)O`, the melting point lay in the range of 143 to 144 °C.

`Clc1sc(Cl)c(Cl)c1Cl`: the melting point was in the range of 28 to 30.5 °C.

Molecule `O=C(O)C(Cl)Br` (stereo unspecified) returned a melting point of 27 to 31.5 °C.

Regarding `c1ccc2ncccc2c1`, the melting point was -15 to -14.8 °C.

Turning to `CCCSSCCC`, the melting point is -86 to -85.6 °C.

As for `COc1ccc(C=Nc2ccccc2)cc1`, the melting point lay within 61 to 65 °C.

On to `C=CCC(C)C`, for which the melting point was -154 to -153 °C.

The molecule `Cc1cncnc1` yielded a melting point of 30 to 32 °C.

Take `O=C(Oc1ccccc1)Oc1ccccc1`: the melting point is 79 to 83 °C.

`CCCCCC(=O)O`: the melting point was -4 to -1.9 °C.

In the case of `C=C1CCC2CC1C2(C)C` (stereo unspecified), the melting point was -61.5 to -61 °C.

Regarding `Cc1c(Br)cc(Br)cc1Br`, the melting point lay in the range of 69 to 70 °C.

For the molecule `CC(=O)CC(=O)c1ccccc1`, the melting point lay in the range of 56 to 59 °C.

The molecule `Oc1ccc(Cl)cc1Cl` gave a melting point of 42 to 45 °C.

As to `C/C=C\CCC`, the melting point was -141 °C.

Consider `CCCCCCCCCCI`, for which the melting point is -16.3 to -16 °C.

Molecule `N=C(Nc1ccccc1)Nc1ccccc1` yielded a melting point of 149 to 150 °C.

For the molecule `Cc1n[nH]cc1Br`, the melting point is 75 to 76.5 °C.

For `CN[C@@H](C)[C@H](O)c1ccccc1`, the melting point fell in the range of 34 to 36 °C.

In turn, `COc1ccc(C(C)=O)c(O)c1` came in with a melting point of 49 to 52.5 °C.

Molecule `CC(C)(C)N=C=S` yielded a melting point of 10 to 10.5 °C.

The molecule `O=C(Cl)c1ccc(C(=O)Cl)cc1` had a melting point of 81 to 83.5 °C.

In the case of `N#Cc1cccnc1`, the melting point was in the range of 50 to 51 °C.

`Brc1cncc2ccccc12`: the melting point lay within 41 to 41.5 °C.

As to `CCCCCCCCCC=O`, the melting point was -6 to -5 °C.

Regarding `OCC1OC(OC2(CO)OC(CO)C(O)C2O)C(O)C(O)C1O` (stereo unspecified), the melting point was 186 to 188 °C.

For the molecule `CCc1ccc(Br)cc1`, the melting point is -43.5 to -43 °C.

Take `COS(=O)(=O)OC`: the melting point was -32 to -27 °C.
